Test results published in ChEMBL document CHEMBL4507274 (2021).

Assays:
[1] = target: T1, Cytoplasmic tyrosine-protein kinase BMX (Homo sapiens) (UniProt P51813); settings: Compound concentration 100.0 nM
T1 sequence (whole entry): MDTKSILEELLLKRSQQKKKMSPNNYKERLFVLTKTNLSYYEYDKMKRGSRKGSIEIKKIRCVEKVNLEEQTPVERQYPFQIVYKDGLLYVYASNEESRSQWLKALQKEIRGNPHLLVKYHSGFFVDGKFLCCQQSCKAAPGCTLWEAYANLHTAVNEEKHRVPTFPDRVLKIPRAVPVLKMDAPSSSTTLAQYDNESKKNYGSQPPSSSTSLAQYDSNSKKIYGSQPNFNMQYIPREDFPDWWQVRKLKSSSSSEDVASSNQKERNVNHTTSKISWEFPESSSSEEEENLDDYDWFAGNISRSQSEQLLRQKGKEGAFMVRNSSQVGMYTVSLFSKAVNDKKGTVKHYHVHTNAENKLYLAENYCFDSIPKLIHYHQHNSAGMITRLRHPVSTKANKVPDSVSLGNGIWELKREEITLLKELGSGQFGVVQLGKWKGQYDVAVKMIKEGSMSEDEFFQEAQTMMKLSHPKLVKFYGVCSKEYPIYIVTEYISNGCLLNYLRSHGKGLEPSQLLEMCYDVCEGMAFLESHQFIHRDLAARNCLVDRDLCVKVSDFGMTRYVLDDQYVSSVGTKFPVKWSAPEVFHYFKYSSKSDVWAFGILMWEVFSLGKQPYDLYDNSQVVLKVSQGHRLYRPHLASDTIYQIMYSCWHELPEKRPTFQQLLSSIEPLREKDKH

[2] = target: Casein kinase I isoform alpha (Homo sapiens) (UniProt P48729); settings: Compound concentration 100.0 nM
Chain of Casein kinase I isoform alpha (Homo sapiens) (P48729 2-337 limits assumed): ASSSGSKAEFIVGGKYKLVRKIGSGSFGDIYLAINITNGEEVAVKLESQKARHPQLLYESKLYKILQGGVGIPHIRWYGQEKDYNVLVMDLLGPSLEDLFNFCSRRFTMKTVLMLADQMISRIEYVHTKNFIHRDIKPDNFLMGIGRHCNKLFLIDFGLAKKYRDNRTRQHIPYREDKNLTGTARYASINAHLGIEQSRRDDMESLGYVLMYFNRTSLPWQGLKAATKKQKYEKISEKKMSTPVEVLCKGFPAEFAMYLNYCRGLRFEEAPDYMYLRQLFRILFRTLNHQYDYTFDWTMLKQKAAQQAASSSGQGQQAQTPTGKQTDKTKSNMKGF

[3] = target: T2, Ephrin type-B receptor 4 (Homo sapiens) (UniProt P54760); settings: Compound concentration 100.0 nM
T2 sequence (whole entry): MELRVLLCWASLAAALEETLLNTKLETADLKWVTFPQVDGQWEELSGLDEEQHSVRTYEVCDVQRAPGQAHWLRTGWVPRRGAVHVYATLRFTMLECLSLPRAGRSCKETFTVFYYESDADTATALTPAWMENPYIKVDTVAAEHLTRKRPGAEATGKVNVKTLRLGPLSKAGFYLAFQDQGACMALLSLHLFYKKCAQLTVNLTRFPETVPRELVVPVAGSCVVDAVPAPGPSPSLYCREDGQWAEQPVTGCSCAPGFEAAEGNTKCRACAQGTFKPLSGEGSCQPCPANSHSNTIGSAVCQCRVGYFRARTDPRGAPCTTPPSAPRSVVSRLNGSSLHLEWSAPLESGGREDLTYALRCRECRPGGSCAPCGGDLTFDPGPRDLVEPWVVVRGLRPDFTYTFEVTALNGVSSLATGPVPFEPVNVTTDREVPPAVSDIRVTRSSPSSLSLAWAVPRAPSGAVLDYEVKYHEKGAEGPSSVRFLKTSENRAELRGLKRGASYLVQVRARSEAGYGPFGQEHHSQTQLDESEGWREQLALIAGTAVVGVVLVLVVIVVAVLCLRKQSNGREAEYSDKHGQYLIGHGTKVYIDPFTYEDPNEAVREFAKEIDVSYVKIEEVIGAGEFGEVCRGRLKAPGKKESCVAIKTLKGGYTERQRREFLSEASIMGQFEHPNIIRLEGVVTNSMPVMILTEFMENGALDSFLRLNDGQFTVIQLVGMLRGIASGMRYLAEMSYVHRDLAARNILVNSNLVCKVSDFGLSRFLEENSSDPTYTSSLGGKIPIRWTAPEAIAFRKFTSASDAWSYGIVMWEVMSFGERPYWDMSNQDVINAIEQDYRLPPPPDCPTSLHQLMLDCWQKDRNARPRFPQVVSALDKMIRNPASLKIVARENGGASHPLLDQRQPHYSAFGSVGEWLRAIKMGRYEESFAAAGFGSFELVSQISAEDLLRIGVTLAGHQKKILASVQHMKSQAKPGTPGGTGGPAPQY

[4] = target: Tyrosine-protein kinase FRK (Homo sapiens) (UniProt P42685); settings: Compound concentration 100.0 nM
Chain of Tyrosine-protein kinase FRK (Homo sapiens) (P42685 whole entry): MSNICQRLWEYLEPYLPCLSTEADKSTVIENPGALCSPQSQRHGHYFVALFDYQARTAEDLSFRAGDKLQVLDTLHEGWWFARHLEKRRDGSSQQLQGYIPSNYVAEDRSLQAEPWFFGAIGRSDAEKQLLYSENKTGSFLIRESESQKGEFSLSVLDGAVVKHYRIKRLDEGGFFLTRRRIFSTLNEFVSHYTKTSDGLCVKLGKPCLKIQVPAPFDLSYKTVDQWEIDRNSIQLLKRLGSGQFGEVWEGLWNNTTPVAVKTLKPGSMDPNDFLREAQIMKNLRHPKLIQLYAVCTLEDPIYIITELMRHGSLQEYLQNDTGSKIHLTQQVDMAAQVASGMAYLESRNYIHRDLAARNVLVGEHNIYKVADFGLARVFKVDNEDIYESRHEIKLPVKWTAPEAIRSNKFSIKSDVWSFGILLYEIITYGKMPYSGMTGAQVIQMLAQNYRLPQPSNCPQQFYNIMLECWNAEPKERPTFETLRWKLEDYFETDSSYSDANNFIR

[5] = target: Beta-adrenergic receptor kinase 1 (Homo sapiens) (UniProt P25098); settings: Compound concentration 100.0 nM
Chain of Beta-adrenergic receptor kinase 1 (Homo sapiens) (P25098 whole entry): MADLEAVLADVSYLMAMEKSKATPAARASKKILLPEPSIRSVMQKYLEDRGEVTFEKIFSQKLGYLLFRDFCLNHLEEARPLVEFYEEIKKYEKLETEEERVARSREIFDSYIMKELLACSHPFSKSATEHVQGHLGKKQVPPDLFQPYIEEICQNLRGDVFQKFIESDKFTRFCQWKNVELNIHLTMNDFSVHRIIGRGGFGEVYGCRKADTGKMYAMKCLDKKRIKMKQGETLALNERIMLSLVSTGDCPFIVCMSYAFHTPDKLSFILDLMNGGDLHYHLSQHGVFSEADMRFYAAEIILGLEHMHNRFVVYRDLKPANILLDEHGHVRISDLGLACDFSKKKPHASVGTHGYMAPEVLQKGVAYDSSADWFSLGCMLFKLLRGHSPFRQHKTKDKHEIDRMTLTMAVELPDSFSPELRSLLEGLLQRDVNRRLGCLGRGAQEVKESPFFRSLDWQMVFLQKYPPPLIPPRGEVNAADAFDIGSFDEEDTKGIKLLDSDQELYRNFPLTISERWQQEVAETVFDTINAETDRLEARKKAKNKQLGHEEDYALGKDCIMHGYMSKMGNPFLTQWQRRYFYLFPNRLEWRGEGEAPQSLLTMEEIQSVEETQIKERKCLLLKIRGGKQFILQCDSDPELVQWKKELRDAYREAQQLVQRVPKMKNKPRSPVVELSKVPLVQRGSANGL

[6] = target: Homeodomain-interacting protein kinase 2 (Homo sapiens) (UniProt Q9H2X6); settings: Compound concentration 100.0 nM
Chain of Homeodomain-interacting protein kinase 2 (Homo sapiens) (Q9H2X6 whole entry, looked up): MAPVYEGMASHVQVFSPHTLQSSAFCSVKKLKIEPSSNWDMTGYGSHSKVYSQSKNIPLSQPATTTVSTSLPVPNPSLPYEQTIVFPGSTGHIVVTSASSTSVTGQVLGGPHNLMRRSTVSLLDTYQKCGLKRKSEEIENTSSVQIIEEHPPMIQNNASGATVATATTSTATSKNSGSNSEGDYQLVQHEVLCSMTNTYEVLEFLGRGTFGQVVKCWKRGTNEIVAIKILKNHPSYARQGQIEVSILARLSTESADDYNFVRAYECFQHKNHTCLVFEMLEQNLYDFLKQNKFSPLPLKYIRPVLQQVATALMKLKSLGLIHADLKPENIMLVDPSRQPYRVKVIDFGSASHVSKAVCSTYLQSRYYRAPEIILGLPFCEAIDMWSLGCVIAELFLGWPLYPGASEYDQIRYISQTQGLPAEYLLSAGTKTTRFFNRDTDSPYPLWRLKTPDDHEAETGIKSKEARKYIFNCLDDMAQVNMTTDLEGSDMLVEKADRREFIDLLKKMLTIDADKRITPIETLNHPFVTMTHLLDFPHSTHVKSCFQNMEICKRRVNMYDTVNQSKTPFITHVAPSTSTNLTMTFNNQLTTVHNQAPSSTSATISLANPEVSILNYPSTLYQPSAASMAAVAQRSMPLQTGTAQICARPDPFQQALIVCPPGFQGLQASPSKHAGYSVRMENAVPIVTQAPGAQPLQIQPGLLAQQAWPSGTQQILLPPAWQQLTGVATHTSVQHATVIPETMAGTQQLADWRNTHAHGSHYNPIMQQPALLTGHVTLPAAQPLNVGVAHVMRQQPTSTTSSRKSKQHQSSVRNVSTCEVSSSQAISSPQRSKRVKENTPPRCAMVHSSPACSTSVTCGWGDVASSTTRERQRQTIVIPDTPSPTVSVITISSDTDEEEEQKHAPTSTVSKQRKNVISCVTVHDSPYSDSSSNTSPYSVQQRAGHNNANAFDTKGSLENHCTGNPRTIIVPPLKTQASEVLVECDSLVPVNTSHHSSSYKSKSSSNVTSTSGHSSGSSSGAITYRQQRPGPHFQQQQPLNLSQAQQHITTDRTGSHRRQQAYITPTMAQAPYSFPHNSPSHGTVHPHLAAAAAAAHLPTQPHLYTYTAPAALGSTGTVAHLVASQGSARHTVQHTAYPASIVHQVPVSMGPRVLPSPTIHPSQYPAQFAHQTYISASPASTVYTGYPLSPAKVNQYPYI

[7] = target: cAMP-dependent protein kinase catalytic subunit alpha (Homo sapiens) (UniProt P17612); settings: Compound concentration 100.0 nM
[8] = target: Serine/threonine-protein kinase 33 (Homo sapiens) (UniProt Q9BYT3); settings: Compound concentration 100.0 nM
Chain of Serine/threonine-protein kinase 33 (Homo sapiens) (Q9BYT3 whole entry, looked up): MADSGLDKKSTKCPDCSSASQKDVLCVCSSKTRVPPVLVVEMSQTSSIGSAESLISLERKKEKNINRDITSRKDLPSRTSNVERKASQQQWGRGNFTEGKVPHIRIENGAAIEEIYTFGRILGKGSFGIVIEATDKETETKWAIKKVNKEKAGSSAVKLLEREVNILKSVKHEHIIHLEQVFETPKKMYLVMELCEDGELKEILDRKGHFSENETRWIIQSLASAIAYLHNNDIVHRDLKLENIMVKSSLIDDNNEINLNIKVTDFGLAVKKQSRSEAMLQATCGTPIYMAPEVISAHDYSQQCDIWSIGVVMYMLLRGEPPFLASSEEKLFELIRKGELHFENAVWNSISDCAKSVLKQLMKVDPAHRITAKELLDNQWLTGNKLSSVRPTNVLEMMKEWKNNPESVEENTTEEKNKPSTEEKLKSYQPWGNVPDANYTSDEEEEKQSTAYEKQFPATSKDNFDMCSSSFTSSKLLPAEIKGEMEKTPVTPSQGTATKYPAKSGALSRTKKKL

[9] = target: T3, Tyrosine-protein kinase receptor TYRO3 (Homo sapiens) (UniProt Q06418); settings: Compound concentration 100.0 nM
T3 sequence (whole entry): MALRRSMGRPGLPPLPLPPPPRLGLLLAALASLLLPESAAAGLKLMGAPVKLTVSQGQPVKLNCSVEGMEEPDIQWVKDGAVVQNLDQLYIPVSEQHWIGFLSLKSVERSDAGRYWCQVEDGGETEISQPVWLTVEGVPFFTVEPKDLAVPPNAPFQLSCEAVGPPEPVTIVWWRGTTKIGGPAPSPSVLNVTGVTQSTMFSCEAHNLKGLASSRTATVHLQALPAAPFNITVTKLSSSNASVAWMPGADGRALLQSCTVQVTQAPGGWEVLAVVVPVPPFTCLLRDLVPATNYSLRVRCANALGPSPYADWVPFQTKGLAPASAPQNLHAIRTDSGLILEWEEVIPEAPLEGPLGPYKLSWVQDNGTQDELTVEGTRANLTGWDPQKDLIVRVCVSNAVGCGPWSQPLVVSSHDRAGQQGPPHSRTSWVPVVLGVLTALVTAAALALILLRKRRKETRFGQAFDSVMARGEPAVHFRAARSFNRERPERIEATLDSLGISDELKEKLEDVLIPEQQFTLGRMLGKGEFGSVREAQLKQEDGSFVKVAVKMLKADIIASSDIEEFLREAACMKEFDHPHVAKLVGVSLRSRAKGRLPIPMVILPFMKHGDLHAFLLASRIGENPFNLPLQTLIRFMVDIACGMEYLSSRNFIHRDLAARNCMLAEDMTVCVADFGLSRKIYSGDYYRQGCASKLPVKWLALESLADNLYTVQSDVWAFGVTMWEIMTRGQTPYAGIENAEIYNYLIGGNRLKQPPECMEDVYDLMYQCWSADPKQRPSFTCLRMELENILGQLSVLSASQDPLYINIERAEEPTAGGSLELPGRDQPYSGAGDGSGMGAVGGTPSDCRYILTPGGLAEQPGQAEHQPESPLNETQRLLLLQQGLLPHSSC

[10] = target: 5-hydroxytryptamine receptor 3A (Homo sapiens) (UniProt P46098); settings: Compound concentration 10.0 uM
Chain of 5-hydroxytryptamine receptor 3A (Homo sapiens) (P46098 whole entry): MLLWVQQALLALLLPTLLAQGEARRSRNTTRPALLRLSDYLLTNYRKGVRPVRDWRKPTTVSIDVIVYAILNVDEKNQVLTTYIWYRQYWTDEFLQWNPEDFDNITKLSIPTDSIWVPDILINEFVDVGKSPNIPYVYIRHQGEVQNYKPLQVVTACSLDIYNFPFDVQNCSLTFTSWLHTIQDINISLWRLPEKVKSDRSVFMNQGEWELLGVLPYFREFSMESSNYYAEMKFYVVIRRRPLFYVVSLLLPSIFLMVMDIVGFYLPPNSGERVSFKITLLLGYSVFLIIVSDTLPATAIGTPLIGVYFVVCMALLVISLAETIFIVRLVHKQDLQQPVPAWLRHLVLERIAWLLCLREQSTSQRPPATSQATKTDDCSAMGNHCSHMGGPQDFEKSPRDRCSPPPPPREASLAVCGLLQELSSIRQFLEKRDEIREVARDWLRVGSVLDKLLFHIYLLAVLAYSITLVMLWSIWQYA

[11] = target: D(1A) dopamine receptor (Homo sapiens) (UniProt P21728); settings: Compound concentration 10.0 uM
Chain of D(1A) dopamine receptor (Homo sapiens) (P21728 whole entry): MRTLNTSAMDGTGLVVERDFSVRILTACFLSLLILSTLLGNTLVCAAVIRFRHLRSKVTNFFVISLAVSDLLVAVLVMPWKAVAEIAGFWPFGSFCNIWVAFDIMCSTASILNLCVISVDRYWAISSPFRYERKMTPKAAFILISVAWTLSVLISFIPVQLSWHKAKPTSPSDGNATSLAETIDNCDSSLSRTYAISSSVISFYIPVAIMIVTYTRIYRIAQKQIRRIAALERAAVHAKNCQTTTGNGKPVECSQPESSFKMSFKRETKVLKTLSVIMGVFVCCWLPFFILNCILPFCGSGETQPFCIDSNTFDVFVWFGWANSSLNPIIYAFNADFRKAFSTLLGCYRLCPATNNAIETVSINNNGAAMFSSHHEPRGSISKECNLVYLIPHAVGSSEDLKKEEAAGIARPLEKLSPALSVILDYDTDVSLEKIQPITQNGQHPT

| SMILES | residual activity [1] | residual activity [2] | residual activity [3] | residual activity [4] | residual activity [5] | residual activity [6] | residual activity [7] | residual activity [8] | residual activity [9] | inhibition [10] | inhibition [11] |
| --- | --- | --- | --- | --- | --- | --- | --- | --- | --- | --- | --- |
| Cc1c[nH]c2nccc(Oc3c(F)cc(Nc4cc(Cl)nc(N)n4)cc3F)c12 [BAY-549] | 100% | 96% | 100% | 100% | 98% | 90% | 28% | 85% | 100% | 0.5% | 16.1% |
| Cn1cc(Cl)c2c(Oc3c(F)cc(Nc4cc(Cl)nc(N)n4)cc3F)ccnc21 [BAY-4900] | 97% | 93% | 100% | 81% | 81% | 100% | 90% | 100% | 80% | 4.46% | 13.2% |
